Several values for one entry are separate records, joined by “and”; a condition that tells them apart may be missing. Equal values may be shown once.
How the values were obtained:
[1] = 18F-NaF micro-PET/CT uptake on calcified human aortic valves ex vivo; assay type: binding
Procedure: To investigate (OEG2)2-IP4 interaction with calcified tissues in a clinically relevant context, a competitive binding assay using ^18F-NaF was applied on severely calcified human femoral arteries and native aortic valves ex vivo. […] First, ^18F-NaF uptake was measured on tissue samples treated with vehicle (human serum) and thereafter, using the same tissue samples, treated with (OEG2)2-IP4 in serum.
Triplicate aliquots of CPP2s (20 µg Ca/mL) in 100 μL assay buffer (100 mM HBS, pH 7.4 (RT)) were incubated for 1 h at RT in the presence of increasing concentrations of compounds in 50 μL Milli-Q water and ^18F-NaF (1 nM) in 50 μL assay buffer, resulting in a total incubation volume of 200 μL (^18F-NaF was prepared using a FASTlab synthesizer (GE Healthcare, Little Chalfont, UK) and commercially available ^18F-NaF cassettes (GE Healthcare)). Maximum radiotracer binding was determined by incubating CPP2s with ^18F-NaF (1 nM) only. The reaction was terminated by rapid filtration through a SOLAμ™ SPE plate (HRP 2 mg/mL 96-well plate, 22 μm; Thermo Fisher Scientific). SPE individual column matrices were washed twice rapidly in assay buffer and radioactivity on the filters determined by an automatic gamma counter (Wizard2 Gamma Counter, Perkin Elmer, Waltham, MA, USA). […]

[2] = system: Glutamate, NMDA, Polyamine; test: Off-target 234000; assay type: binding, Rat; settings: 10 µM
Procedure: (§1) The potential off-target activity of 10 µM (OEG2)2-IP4 was assessed against a panel of 87 enzymes, receptors, or ion channels that are used in standard safety pharmacology screens.
(§2) 3.2. Off-target screening assay
The experiments were conducted by a contract research organization (Eurofins Panlabs Discovery
Services Taiwan, Ltd.) and details on the respective assays can be retrieved via the catalog number
provided in Supplementary Table 11 from the company’s webpage
(§3) (https://www.eurofinsdiscoveryservices.com/). […]

[3] = target: T1, Adrenergic β1 (Homo sapiens, UniProt P08588); test: Off-target 204010; assay type: binding
T1 construct: purchased Eurofins Panlabs Discovery Services Taiwan, Ltd
T1 sequence (P08588 whole entry): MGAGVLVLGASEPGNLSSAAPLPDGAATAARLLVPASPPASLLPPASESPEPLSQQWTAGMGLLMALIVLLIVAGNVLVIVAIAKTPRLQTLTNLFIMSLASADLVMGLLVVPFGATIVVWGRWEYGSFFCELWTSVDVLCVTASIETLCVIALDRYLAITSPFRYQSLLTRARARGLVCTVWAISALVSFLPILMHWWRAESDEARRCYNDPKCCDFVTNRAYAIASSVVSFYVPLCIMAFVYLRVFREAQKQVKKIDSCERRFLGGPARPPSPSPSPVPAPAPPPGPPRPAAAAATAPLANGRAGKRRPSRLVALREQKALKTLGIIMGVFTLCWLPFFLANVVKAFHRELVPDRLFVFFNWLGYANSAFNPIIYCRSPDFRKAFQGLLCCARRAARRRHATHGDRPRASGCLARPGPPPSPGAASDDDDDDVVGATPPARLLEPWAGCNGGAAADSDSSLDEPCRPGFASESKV
Procedure: as §1, §2
(§4) The experiments were conducted by a contract research organization (Eurofins Panlabs Discovery Services Taiwan, Ltd.) and details on the respective assays can be retrieved via the catalog number provided in Supplementary Table 11 from the company’s webpage
as §3
(§5) At sacrifice the left tibia of animals of the rat model with dietary adenine/high-phosphate-induced uremia and VC was collected, fixed with 70% v/v EtOH and embedded in methyl methacrylate. The trabecular bone compartment is known to be the most metabolic active i.e. actively re-structured bone compartment in CKD. Therefore, histomorphometric and micro-computed tomography (µCT) analysis of bone was performed on the trabecular compartment. Tibial sections were Goldner-stained for histomorphometric analysis of the proximal metaphysis using the AxioVision Release 4.5 software, as […]
(§6) described previously5. […]

[4] = target: T2, Dopamine D2S (Homo sapiens, UniProt P14416); test: Off-target 219700; assay type: binding
T2 construct: purchased Eurofins Panlabs Discovery Services Taiwan, Ltd
T2 sequence (P14416 1-414 isoform P14416-2): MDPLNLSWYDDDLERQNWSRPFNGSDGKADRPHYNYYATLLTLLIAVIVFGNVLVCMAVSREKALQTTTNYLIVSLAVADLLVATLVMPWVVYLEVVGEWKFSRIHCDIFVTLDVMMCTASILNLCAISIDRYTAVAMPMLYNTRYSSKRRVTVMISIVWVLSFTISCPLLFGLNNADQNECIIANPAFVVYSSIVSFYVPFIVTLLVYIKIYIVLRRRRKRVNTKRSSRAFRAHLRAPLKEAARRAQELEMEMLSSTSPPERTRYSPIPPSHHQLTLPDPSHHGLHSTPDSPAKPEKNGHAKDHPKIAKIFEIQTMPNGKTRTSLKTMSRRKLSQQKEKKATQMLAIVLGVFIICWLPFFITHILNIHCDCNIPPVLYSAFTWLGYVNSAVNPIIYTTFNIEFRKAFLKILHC
Procedure: as §1, §2, §4, §3, §5, §6

[5] = target: T3, (Rattus norvegicus, UniProt P15823); test: Off-target 203200; assay type: binding
T3 construct: purchased Eurofins Panlabs Discovery Services Taiwan, Ltd
T3 sequence (P15823 whole entry): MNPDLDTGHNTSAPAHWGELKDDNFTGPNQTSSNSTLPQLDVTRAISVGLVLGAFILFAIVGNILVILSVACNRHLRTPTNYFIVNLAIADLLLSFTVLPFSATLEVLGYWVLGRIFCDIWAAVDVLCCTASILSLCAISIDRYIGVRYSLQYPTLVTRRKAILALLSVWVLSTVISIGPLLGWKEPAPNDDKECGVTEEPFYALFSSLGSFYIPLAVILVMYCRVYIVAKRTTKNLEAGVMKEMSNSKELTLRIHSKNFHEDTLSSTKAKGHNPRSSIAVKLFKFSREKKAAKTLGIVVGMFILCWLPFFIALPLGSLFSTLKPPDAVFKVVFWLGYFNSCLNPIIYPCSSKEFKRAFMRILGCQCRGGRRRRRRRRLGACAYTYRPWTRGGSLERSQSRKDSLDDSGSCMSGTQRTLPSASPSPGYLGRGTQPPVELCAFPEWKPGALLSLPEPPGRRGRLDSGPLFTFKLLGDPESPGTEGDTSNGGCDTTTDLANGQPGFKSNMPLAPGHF
Procedure: as §1, §2, §4, §3, §5, §6

[6] = system: Glutamate, NMDA, Phencyclidine; test: Off-target 233000; assay type: binding, Rat; settings: 10 µM
Procedure: as §1, §2, §4, §3, §5, §6

COCCOCCO[C@@H]1[C@@H](OP(=O)(O)O)[C@H](OCCOCCOC)[C@@H](OP(=O)(O)O)[C@@H](OP(=O)(O)O)[C@H]1OP(=O)(O)O [(OEG2)2-IP4, 4,6-Di-O-(methoxy-diethyleneglycol)-myo-inositol-1,2,3,5-tetrakis(phosphate)]
change of 18F-NaF uptake vs vehicle ([1]; 8.6 μM in human serum): −33%
maximum average 18F binding (18F-NaF-PET) ([1]; IC90 concentration in human serum, individual samples Fig. 3k, unit not given): 547.591 and 685.802 and 706.308
% Inhibition [2]: 17%
inhibition at 10 µM [3]: 2%
inhibition at 10 µM [4]: 7%
inhibition at 10 µM [5]: 5%
% Inhibition [6]: 7%

Reference: article PMC7002685, “Inhibition of vascular calcification by inositol phosphates derivatized with ethylene glycol oligomers” (Nature Communications, 2020)
